Laboratory results: US20010056101A1 (priority 1998, published 2001)
Where two headings read alike, the source gives them in different places.

Tests used:
[1] = test system: hO3 Receptor (Homo sapiens); details: for Intrinsic Activity: calculated from the Low/High ratio; for Ratio Low/High: ratio of affinity at low-affinity agonist state to high affinity agonist state; for Ki: read-out: Ki (nM) ± S.D
[2] = molecular target: T1, hO44 Receptor (Homo sapiens, UniProt P21917); details: for Ki / Intrinsic Activity / Ratio Low/High: hO44 Receptor; for Ratio Low/High: ratio of affinity at low-affinity agonist state to high affinity agonist state
T1 sequence (P21917 1-419): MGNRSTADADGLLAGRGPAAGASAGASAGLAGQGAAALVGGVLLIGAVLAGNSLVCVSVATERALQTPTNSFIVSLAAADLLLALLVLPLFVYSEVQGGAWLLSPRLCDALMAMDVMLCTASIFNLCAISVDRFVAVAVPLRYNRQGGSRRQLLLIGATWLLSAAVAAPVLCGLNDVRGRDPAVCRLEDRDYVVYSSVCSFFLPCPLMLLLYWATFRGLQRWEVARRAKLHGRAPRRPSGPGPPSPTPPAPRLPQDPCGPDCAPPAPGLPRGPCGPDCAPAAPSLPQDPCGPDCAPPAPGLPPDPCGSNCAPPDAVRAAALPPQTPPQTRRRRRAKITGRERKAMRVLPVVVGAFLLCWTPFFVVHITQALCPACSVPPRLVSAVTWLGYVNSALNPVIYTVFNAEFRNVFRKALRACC

[3] = test system: schizophrenia; details: cited from earlier work
[4] = molecular target: T2, hD44 (Homo sapiens, UniProt P21917); test: biochemical
T2 sequence (P21917 1-419): T1 sequence (P21917 1-419)

[5] = molecular target: D2 receptor (Homo sapiens, UniProt P14416); details: for Emax: CHO
[6] = molecular target: T3, hD42 (Homo sapiens, UniProt P21917, DEL265-296); test: biochemical
T3 sequence (P21917 with tags, fused parts or gaps DEL265-296): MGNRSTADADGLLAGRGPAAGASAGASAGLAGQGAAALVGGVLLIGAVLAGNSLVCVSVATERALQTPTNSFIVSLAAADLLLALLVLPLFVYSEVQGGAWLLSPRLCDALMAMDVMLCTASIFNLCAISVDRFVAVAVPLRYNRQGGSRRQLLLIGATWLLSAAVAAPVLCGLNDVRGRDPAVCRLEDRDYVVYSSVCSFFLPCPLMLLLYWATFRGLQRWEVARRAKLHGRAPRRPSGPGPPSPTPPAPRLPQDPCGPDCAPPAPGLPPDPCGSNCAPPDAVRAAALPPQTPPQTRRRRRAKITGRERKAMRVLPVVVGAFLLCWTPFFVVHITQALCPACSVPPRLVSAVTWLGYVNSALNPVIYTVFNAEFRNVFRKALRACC

[7] = test system: schizophrenia; test: Clinical antipsychotic efficacy, efficacy tolerance and side effects of dopamine agonists in schizophrenia; format: in vivo, human
[8] = test system: hD3 (Homo sapiens); test: Affinity and intrinsic activity, Table 4; format: binding
[9] = molecular target: T4, hD47 (Homo sapiens, UniProt P21917)
T4 sequence (P21917 1-419): T1 sequence (P21917 1-419)

[10] = test system: actively psychotic schizophrenic persons; test: Clinical test of (−)-3PPP plus haloperidol in actively psychotic schizophrenic persons, BPRS; format: in vivo, human; details: for Change in Total BPRS Score, mean: each arm with haloperidol 1 mg bid
From the text: This combination was designed to produce a lower IA (-)-3PPP, and thereby prolonging its antipsychotic activity. […] This dose of haloperidol may have delivered a measurable antipsychotic effect. […] (Table 5).

[11] = test system: L-DOPA-induced dyskinesia in Parkinson's disease; details: cited from earlier work
[12] = test system: tardive dyskinesia; details: clinical pharmacology, in words; cited from earlier work
[13] = test system: schizophrenia; details: grade symbols, key not given; cited from earlier work
[14] = molecular target: hD21 Receptor (Homo sapiens, UniProt P14416); test: Affinity and intrinsic activity of partial dopamine agonists, Table 3
[15] = calculated from the Low/High ratio

hO3 Receptor (Homo sapiens), sequence (P14416 whole entry): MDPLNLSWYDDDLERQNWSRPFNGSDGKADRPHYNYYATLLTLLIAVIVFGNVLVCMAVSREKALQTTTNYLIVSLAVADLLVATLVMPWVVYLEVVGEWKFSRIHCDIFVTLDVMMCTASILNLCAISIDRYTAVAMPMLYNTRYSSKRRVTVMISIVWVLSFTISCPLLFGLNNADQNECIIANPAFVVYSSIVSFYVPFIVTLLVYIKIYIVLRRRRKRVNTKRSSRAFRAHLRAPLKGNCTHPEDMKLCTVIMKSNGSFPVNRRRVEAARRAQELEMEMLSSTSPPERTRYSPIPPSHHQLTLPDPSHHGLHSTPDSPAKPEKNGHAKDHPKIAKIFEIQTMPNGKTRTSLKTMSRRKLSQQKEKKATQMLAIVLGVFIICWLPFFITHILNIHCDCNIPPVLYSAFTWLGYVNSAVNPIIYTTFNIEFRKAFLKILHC
D2 receptor, sequence (P14416 whole entry): as above
hD21 Receptor, sequence (P14416 whole entry): as above
hD3 (Homo sapiens), sequence (P14416 whole entry): as above

## CCCN1CCCC(c2cccc(O)c2)C1 (single isomer, unassigned; (+)) [(+)-3-PPP]
[1]
  Intrinsic Activity: 81%
[2]; Ki (nM) ± S.D.
  Ki: 12 ± 6.5 nM
[2]; [15]
  Intrinsic Activity: 96%

## CCCN(CCc1cccs1)C1CCc2c(O)cccc2C1 (single isomer, unassigned; (+)) [(+)-N-0437]
[1]
  Intrinsic Activity: 48%
  Ratio Low/High: 10
  Ki: 4.8 ± 2.3 nM
[2]; [15]
  Intrinsic Activity: 72%
[2]
  Ratio Low/High: 40
[2]; read-out: Ki (nM) ± S.D.
  Ki: 7.7 ± 3.4 nM

## CCCN1CCCC(c2cccc(O)c2)C1 (single isomer, unassigned; (-)) [(−)-3-PPP, (−)3-(3-hydroxyphenyl)-N-n-propylpiperidine]
[3]; clinical application in schizophrenia
  Acute motor side effects: not accompanied by any acute motor side effect
[3]; continuous dosing, agonist alone
  Duration of antipsychotic action: approximately one week
[4]
  Ki: 13.2 nM
[4]; read-out: Intrinsic Activity %
  Emax: 97%
[5]; read-out: Intrinsic activity (IA), Example 2
  Emax: 40%
[5]; read-out: Intrinsic activity, tested without haloperidol, FIG. 1
  Emax: 36%
[5]; varying concentrations of haloperidol, FIG. 1
  Change of intrinsic activity with increasing concentrations of haloperidol: linear reduction in the intrinsic activity
[1]
  Intrinsic Activity: 46%
[6]
  Ki: 30.9 nM
[6]; read-out: Intrinsic Activity %
  Emax: 73%
[7]; antipsychotic efficacy before tolerance
  Duration of efficacy: up to 7 days
[8]
  Emax: 46%
[9]
  Intrinsic Activity %: 98%
[9]; high affinity agonist state, [3H]-agonist ligand
  Ki: 14.3 nM
[10]; (−)-3PPP 300 mg bid plus haloperidol 1 mg bid, two weeks
  Antipsychotic effect over the trial: extended longer for the entire two week period of the trial without evidence of tolerance
[10]; Day 3
  Change in Total BPRS Score, mean: −1.4
[10]; Day 7
  Change in Total BPRS Score, mean: −3.4
[10]; Day 11
  Change in Total BPRS Score, mean: −3.3
[10]; Day 14
  Change in Total BPRS Score, mean: −4.6
[11]
  Effect on L-DOPA-induced dyskinesia: improves L-DOPA-induced dyskinesia in Parkinson's disease
[2]; Ki (nM) ± S.D.
  Ki: 12.2 ± 3.1 nM
[2]; read-out: Intrinsic Activity, hO44 Receptor, calculated from the Low/High ratio
  Emax: 83%

## CN1CCc2cccc3c2[C@@H]1Cc1ccc(O)c(O)c1-3 [(+)-Apo]
[2]; [15]
  Intrinsic Activity: 55%

## CCCN1CCc2cccc3c2[C@@H]1Cc1ccc(O)c(O)c1-3 [(+)-NPA]
[1]
  Intrinsic Activity: 61%
[2]; [15]
  Intrinsic Activity: 58%
[2]; read-out: Ki (nM) ± S.D.
  Ki: 2.3 ± 2 nM

## CN1CCc2cccc3c2[C@H]1Cc1ccc(O)c(O)c1-3 [(−)-Apo]
[2]; [15]
  Intrinsic Activity: 80%

## CCCN(CCc1cccs1)[C@H]1CCc2c(O)cccc2C1 [(−)-N-0437]
[1]
  Intrinsic Activity: 94%
  Ratio Low/High: 145
  Ki: 0.08 ± 0.04 nM
[2]; [15]
  Intrinsic Activity: 88%
[2]
  Ratio Low/High: 106
[2]; read-out: Ki (nM) ± S.D.
  Ki: 1.1 ± 0.7 nM

## CCCN1CCc2cccc3c2[C@H]1Cc1ccc(O)c(O)c1-3 [(−)-NPA]
[1]
  Intrinsic Activity: 100%
[2]; [15]
  Intrinsic Activity: 57%
[2]; read-out: Ki (nM) ± S.D.
  Ki: 0.6 ± 0.2 nM

## CN1CCc2cccc3c2[C@H]1Cc1ccc(O)c(O)c1-3 [Apomorphine, apomorphine]
[12]
  Effect on tardive dyskinesia: paradoxically improves tardive dyskinesia, both significantly and substantially

## CN1C[C@H](CSc2ccccn2)C=C2c3cccc4[nH]cc(c34)C[C@H]21 [CF25-397]
[13]
  Antipsychotic: 0
[12]
  Effect on tardive dyskinesia: modestly improved dyskinetic symptoms in TD

## CN1C[C@H](CN2CC(=O)NC(=O)C2)C=C2c3cccc4[nH]cc(c34)C[C@H]21 [FCE-23884]
[14]
  Intrinsic Activity: 37.0%
[14]; read-out: Ki (HiAg State), high affinity agonist state
  Ki: 0.4 nM
[14]; read-out: Ki (LowAg State), low affinity agonist state
  Ki: 2.17 nM

## O=C(CCCN1CCC(O)(c2ccc(Cl)cc2)CC1)c1ccc(F)cc1 [Haloperidol, haloperidol]
[10]; Day 3
  Change in Total BPRS Score, mean: −1.0
[10]; Day 7
  Change in Total BPRS Score, mean: −0.2
[10]; Day 11
  Change in Total BPRS Score, mean: −0.1
[10]; Day 14
  Change in Total BPRS Score, mean: −1.1

## CCCN1CCc2cccc3c2[C@H]1Cc1ccc(O)c(O)c1-3 [NPA, n-propylnorapomorphine]
[7]; antipsychotic efficacy tolerance
  Efficacy tolerance observed after: 24 h

## c1cnc(N2CCN(Cc3ccc4c(c3)OCO4)CC2)nc1 [Piribedil (S584), piribedil]
[13]
  Antipsychotic: 0
[12]
  Effect on tardive dyskinesia: modestly improved dyskinetic symptoms in TD
